The record followed here is patent publication US11091494B2, “Crystal form of acalabrutinib and preparation method and use thereof” (Crystal Pharmaceutical (Suzhou) Co., Ltd., priority 2018, dated 2021).

Molecules are shown by their SMILES.

What all share (assay type): physicochemical
Data set [1] can be described thus: Intrinsic dissolution rate in pH 2.5 HCl/NaCl aqueous solution. Conditions: for Cumulative dissolution / IDR (intrinsic dissolution rate): pH 2.5 HCl/NaCl, 37° C.; for Cumulative dissolution: 0.5 cm^2 pellet; for IDR relative to that of Form I in WO2017002095A1: pH 2.5 HCl/NaCl solution; for IDR (intrinsic dissolution rate): slope over 0-45 minutes. On the procedure:
Approximately 200 mg of Form A and Form I in WO2017002095A1 were added into the die, compressed at 10 kN and held for 1 minute to obtain a pellet having a surface area of 0.5 cm^2. The whole tool with the pellet was transferred to a dissolution apparatus to test the intrinsic dissolution rate. The slope (mg/min) was calculated according to the data within 0-45 minutes. Intrinsic dissolution rate (IDR, mg/min/cm^2) was further calculated according to the slope.
Approximately 200 mg of Form D and Form I in WO2017002095A1 were added into the die, compressed at 10 kN and held for 1 minute to obtain a pellet having a surface area of 0.5 cm^2. The whole tool with the pellet was transferred to a dissolution apparatus to test the intrinsic dissolution rate. The slope (mg/min) was calculated according to the data within 0-45 minutes. Intrinsic dissolution rate (IDR, mg/min/cm^2) was further calculated according to the slope.
Approximately 200 mg of Form F and Form I in WO2017002095A1 were added into the die, compressed at 10 kN and held for 1 minute to obtain a pellet having a surface area of 0.5 cm^2. The whole tool with the pellet was transferred to a dissolution apparatus to test the intrinsic dissolution. The slope (mg/min) was calculated according to the data within 0-45 minutes. Intrinsic dissolution rate (IDR, mg/min/cm^2) was further calculated according to the slope.
Approximately 200 mg of Form G and Form I in WO2017002095A1 were added into the die, compressed at 10 kN and held for 1 minute to obtain a pellet having a surface area of 0.5 cm^2. The whole tool with the pellet was transferred to a dissolution apparatus to test the intrinsic dissolution. The slope (mg/min) was calculated according to the data within 0-45 minutes. Intrinsic dissolution rate (IDR, mg/min/cm^2) was further calculated according to the slope.
Approximately 200 mg of Form CS15 and Form I in WO2017002095A1 were added into the die, compressed at 10 kN and held for 1 minute to obtain a pellet having a surface area of 0.5 cm^2. The whole tool with the pellet was transferred to a dissolution apparatus to test the intrinsic dissolution. The slope (mg/min) was calculated according to the data within 0-45 minutes. Intrinsic dissolution rate (IDR, mg/min/cm^2) was further calculated according to the slope.

Data set [2] can be described thus: Stability of crystalline form on storage, checked by XRPD. Particulars: for Solid form: XRPD; for Chemical purity on storage: 25° C./60% RH in open and closed dishes, at least 2 months. On the procedure: Approximately 10 mg of Form A of the present disclosure was weighed and stored at different conditions of 25° C./60% RH in open dish, 25° C./60% RH in closed dish, 40° C./75% RH in open dish, and 40° C./75% RH in closed dish. Crystalline forms were checked by XRPD.
Approximately 10 mg of Form D of the present disclosure was weighed and stored at different conditions of 25° C./60% RH in closed dish, 25° C./60% RH in open dish, 40° C./75% RH in closed dish. Crystalline form was checked by XRPD.
Approximately 10 mg of Form F of the present disclosure was weighed and stored at different conditions of 25° C./60% RH in closed dish, 25° C./60% RH in open dish, and 40° C./75% RH in closed dish, 40° C./75% RH in open dish. Crystalline forms were checked by XRPD.
Approximately 10 mg of Form G of the present disclosure was weighed and stored at 25° C./60% RH in closed dish. Crystalline forms were checked by XRPD.
Approximately 10 mg of Form CS15 of the present disclosure was weighed and stored at different conditions of 25° C./60% RH in open dish, 25° C./60% RH in closed dish. Crystalline forms were checked by XRPD.

Data set [3] in a line: Flowability (compressibility index / Carr index). Particulars: for Flowability: by compressibility index; for Compressibility index: c=(ρf−ρ0)/ρf. The method, then: Compressibility index or Carr index is usually utilized to evaluate the flowability of powder and granules during the drug product process. Compressibility index test method is as follows: a certain amount of powder was added into a measuring cylinder and bulk volume was recorded. Then the powder was tapped to make it in the tightest state and the tapped volume was recorded. The bulk density (ρ0) and tapped density (ρf) were calculated. Compressibility index was calculated according to c=(ρf−ρ0)/ρf.
Compressibility index or Carr index is usually utilized to evaluate the flowability of powder and granules during the drug product process. Compressibility index test method is as follows: a certain amount of powder was added into a measuring cylinder and bulk volume was recorded. Then the powder was tapped to make it in the tightest state and the tapped volume was recorded. The bulk density (ρ0), tapped density (ρf) were calculated and compressibility index was calculated according to c=(pf-po)/pf.
Compressibility index or Carr index is usually utilized to evaluate the flowability of powder and granules during the drug product process. Compressibility index test method is as follows: a certain amount of powder was added into a measuring cylinder and bulk volume was recorded. Then the powder was tapped to make it in the tightest state and the tapped volume was recorded. The bulk density (ρ0), tapped density (ρf) were calculated and compressibility index was calculated according to c=(ρf−ρ0)/ρf.

A short description of data set [4]: Adhesiveness (amount of material sticking to the punch). Particulars: about 30 mg, φ8 mm round tooling, 10 kN, compression repeated twice. On the procedure: Approximately 30 mg of Form A and Form I in WO2017002095A1 were weighed, added into the dies of a φ8 mm round tooling, compressed at 10 kN and held for about 30 s. The amount of material sticking to the punch was weighed. The compression was repeated twice and the cumulative amount and average amount of material sticking to the punch during the compression were recorded.
Approximately 30 mg of Form F and Form I in WO2017002095A1 were weighed, added into the dies of a φ8 mm round tooling, compressed at 10 kN and held for about 30 s. The amount of material sticking to the punch was weighed. The compression was repeated twice and the cumulative amount and average amount of material sticking to the punch during the compression were recorded.
Approximately 30 mg of Form G and Form I in WO2017002095A1 were weighed, added into the dies of a φ8 mm round tooling, compressed at 10 kN and held for about 30 s. The amount of material sticking to the punch was weighed. The compression was repeated twice and the cumulative amount and average amount of material sticking to the punch during the compression were recorded.

The mark [5] stands for this setting: 25° C./60% RH in closed dish, 2 months.
Setting [6] is: 25° C./60% RH in open dish, 2 months.
Setting [7] is: 40° C./75% RH in closed dish, 2 months.
The mark [8] stands for this setting: 40° C./75% RH in open dish, 2 months.

Regarding `CC#CC(=O)N1CCC[C@H]1c1nc(-c2ccc(C(=O)Nc3ccccn3)cc2)c2c(N)nccn12` [Form A, (S)-4-(8-amino-3-(1-(but-2-ynoyl)pyrrolidin-2-yl)imidazo[1,5-a]pyrazin-1-yl)-N-(pyridin-2-yl)benzamide], the Cumulative dissolution is 0.00 mg in data set [1] (0 min); 1.13 mg in data set [1] (5 min); 2.42 mg in data set [1] (10 min); 3.80 mg in data set [1] (15 min); 4.73 mg in data set [1] (20 min); 5.79 mg in data set [1] (25 min). The Cumulative dissolution came to 6.72 mg in data set [1] (30 min), 7.83 mg in data set [1] (35 min) and 9.93 mg in data set [1] (45 min). In addition, in data set [1], the “IDR relative to that of Form I in WO2017002095A1” value (“IDR relative to that of Form I” below) was determined as 1.2 times. The “IDR (intrinsic dissolution rate)” value in data set [1] is recorded as 0.4520 mg/min/cm^2. The “Time kept stable (crystalline state doesn't change)” value in data set [2] (25° C./60% RH in closed dish), in data set [2] (25° C./60% RH in open dish), in data set [2] (40° C./75% RH in closed dish) and in data set [2] (40° C./75% RH in open dish) was “at least 2 months” throughout. Moreover, the Solid form result in data set [2] (setting [5]), in data set [2] (setting [6]), in data set [2] (setting [7]), in data set [2] (setting [8]) and in data set [2] (Initial) was “Form A” throughout. Also, in data set [2], the “Chemical purity on storage” value is listed as “remains substantially unchanged”. In addition, the “Bulk density (ρ0)” value in data set [3] stood at 0.269 g/mL. Also, the “Tapped density (ρf)” value in data set [3] was 0.303 g/mL. The Flowability entry in data set [3] is given as “Good (11-15)”. In data set [3], the Compressibility index amounted to 11%. For the same compound, the “Average amount (material sticking to the punch)” value in data set [4] was found to be 40 µg. The “Cumulative amount (material sticking to the punch)” value in data set [4] worked out at 80 µg.
Regarding `CC#CC(=O)N1CCC[C@H]1c1nc(-c2ccc(C(=O)Nc3ccccn3)cc2)c2c(N)nccn12` [Form CS15, (S)-4-(8-amino-3-(1-(but-2-ynoyl)pyrrolidin-2-yl)imidazo[1,5-a]pyrazin-1-yl)-N-(pyridin-2-yl)benzamide], the Cumulative dissolution in data set [1] (0 min) amounted to 0.00 mg; in data set [1] (5 min), 1.06 mg; in data set [1] (10 min) it was 2.34 mg; in data set [1] (15 min), 4.20 mg; in data set [1] (20 min), 5.60 mg; in data set [1] (25 min), 7.89 mg. The Cumulative dissolution in data set [1] (30 min) is on record as 8.86 mg; in data set [1] (35 min), 10.60 mg; in data set [1] (45 min), 12.41 mg. Besides, the “IDR relative to that of Form I” value in data set [1] is reported as 1.6 times. In addition, the “IDR (intrinsic dissolution rate)” value in data set [1] was 0.5778 mg/min/cm^2. Moreover, the “Time kept stable (crystalline state doesn't change)” value in data set [2] (25° C./60% RH in closed dish) and in data set [2] (25° C./60% RH in open dish) was “at least 2 months” each time. In addition, the Solid form result in data set [2] (setting [5]), in data set [2] (setting [6]) and in data set [2] (Initial) was “Form CS15” in each case. In data set [2], the “Chemical purity on storage” value is given as “remains substantially unchanged”.
In the case of `CC#CC(=O)N1CCC[C@H]1c1nc(-c2ccc(C(=O)Nc3ccccn3)cc2)c2c(N)nccn12` [Form F, (S)-4-(8-amino-3-(1-(but-2-ynoyl)pyrrolidin-2-yl)imidazo[1,5-a]pyrazin-1-yl)-N-(pyridin-2-yl)benzamide], the Cumulative dissolution came to 0.00 mg in data set [1] (0 min); 1.31 mg in data set [1] (5 min); 2.47 mg in data set [1] (10 min); 3.99 mg in data set [1] (15 min); 5.30 mg in data set [1] (20 min); 6.50 mg in data set [1] (25 min). Moreover, the Cumulative dissolution in data set [1] (30 min) stood at 7.26 mg; in data set [1] (35 min) it was 8.74 mg; in data set [1] (45 min), 10.44 mg. The “IDR relative to that of Form I” value in data set [1] is given as 1.3 times. In addition, the “IDR (intrinsic dissolution rate)” value in data set [1] turned out to be 0.4898 mg/min/cm^2. The “Time kept stable (crystalline state doesn't change)” value in data set [2] (25° C./60% RH in closed dish), in data set [2] (25° C./60% RH in open dish), in data set [2] (40° C./75% RH in closed dish) and in data set [2] (40° C./75% RH in open dish) was “at least 2 months” each time. Besides, the Solid form result in data set [2] (setting [5]), in data set [2] (setting [6]), in data set [2] (setting [7]) and in data set [2] (setting [8]) was “Form F” each time. Also, in data set [2], the “Chemical purity on storage” value is listed as “remains substantially unchanged”. In data set [3], the “Bulk density (ρ0)” value was 0.185 g/mL. Moreover, the “Tapped density (ρf)” value in data set [3] worked out at 0.216 g/mL. For the same compound, the Flowability entry in data set [3] is given as “Good (11-15)”. In data set [3], this compound returned a Compressibility index of 14%. Also, the “Average amount (material sticking to the punch)” value in data set [4] is 30 µg. In data set [4], the “Cumulative amount (material sticking to the punch)” value was 60 µg.
